Measurements as given in ChEMBL document CHEMBL4507281, “Data for DCP probe BI-4394” (2021).

Experiments:
Conditions in all cases: Compound concentration 10.0 uM
[1] = molecular target: Mitogen-activated protein kinase 1 (Homo sapiens) (UniProt P28482)
[2] = molecular target: Insulin receptor (Homo sapiens) (UniProt P06213)
[3] = molecular target: Tyrosine-protein kinase SYK (Homo sapiens) (UniProt P43405)
[4] = molecular target: T1, Tyrosine-protein kinase JAK3 (Homo sapiens) (UniProt P52333)
T1 sequence (whole entry): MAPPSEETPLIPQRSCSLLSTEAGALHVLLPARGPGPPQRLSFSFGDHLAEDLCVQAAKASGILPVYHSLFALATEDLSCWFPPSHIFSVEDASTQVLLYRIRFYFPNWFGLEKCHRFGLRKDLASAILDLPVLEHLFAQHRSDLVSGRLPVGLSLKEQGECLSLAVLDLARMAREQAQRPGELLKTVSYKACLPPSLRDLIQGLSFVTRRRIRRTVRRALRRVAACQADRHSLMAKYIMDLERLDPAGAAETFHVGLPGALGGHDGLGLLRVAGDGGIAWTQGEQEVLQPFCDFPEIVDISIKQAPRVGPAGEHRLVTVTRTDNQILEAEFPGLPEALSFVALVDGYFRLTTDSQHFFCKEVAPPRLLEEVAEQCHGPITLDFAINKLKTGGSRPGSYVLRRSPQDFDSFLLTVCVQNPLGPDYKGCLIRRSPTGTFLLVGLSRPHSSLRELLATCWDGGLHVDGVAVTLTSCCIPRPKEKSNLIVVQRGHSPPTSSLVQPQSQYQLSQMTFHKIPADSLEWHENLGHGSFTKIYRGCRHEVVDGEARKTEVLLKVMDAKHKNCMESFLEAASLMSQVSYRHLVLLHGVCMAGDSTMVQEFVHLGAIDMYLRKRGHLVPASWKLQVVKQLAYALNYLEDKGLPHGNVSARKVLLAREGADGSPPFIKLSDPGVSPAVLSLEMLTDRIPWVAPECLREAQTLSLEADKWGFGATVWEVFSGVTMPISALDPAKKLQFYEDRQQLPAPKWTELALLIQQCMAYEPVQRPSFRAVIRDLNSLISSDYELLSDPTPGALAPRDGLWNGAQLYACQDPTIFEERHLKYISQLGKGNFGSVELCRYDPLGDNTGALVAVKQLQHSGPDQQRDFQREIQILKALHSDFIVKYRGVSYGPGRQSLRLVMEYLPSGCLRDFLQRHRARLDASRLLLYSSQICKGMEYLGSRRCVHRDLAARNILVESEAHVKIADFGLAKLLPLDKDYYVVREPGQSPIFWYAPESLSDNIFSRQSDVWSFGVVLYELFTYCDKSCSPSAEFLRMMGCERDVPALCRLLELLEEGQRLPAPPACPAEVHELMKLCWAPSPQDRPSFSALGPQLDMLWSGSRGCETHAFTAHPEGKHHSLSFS

[5] = molecular target: T2, Aurora kinase A (Homo sapiens) (UniProt O14965)
T2 sequence (whole entry): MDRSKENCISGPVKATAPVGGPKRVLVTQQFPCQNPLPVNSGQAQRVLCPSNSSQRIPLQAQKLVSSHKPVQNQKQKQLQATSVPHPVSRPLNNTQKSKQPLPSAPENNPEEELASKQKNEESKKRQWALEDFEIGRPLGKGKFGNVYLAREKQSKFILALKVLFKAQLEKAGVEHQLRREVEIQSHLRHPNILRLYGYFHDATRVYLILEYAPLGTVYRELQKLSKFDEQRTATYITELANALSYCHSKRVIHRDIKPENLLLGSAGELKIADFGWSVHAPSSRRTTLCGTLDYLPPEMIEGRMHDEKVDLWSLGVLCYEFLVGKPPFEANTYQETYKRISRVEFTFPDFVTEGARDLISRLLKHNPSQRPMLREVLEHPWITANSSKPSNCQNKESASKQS

[6] = molecular target: Serine/threonine-protein kinase MARK2 (Homo sapiens) (UniProt Q7KZI7)
Sequence of Serine/threonine-protein kinase MARK2 (Homo sapiens) (Q7KZI7 whole entry): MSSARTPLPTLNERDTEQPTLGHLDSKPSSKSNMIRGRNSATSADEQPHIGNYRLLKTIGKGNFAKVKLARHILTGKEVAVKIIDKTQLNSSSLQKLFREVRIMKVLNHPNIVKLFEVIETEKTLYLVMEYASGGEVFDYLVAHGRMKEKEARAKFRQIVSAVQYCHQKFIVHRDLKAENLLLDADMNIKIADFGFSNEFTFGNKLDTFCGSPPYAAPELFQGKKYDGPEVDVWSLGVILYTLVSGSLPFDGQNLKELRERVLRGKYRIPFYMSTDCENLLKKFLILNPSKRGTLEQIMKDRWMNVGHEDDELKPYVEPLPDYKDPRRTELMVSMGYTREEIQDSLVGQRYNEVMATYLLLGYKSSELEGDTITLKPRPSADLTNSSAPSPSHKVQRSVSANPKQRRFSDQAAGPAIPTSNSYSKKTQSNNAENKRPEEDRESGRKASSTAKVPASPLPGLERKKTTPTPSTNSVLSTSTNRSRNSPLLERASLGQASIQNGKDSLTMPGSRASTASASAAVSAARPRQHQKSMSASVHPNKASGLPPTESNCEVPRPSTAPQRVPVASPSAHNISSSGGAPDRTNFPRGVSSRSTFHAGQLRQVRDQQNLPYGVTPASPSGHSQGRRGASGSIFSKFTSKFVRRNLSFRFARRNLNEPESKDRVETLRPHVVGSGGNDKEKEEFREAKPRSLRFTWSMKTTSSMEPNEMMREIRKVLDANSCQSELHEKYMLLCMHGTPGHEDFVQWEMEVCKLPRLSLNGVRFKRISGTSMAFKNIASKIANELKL

[7] = molecular target: Dual specificity tyrosine-phosphorylation-regulated kinase 3 (Homo sapiens) (UniProt O43781)
[8] = molecular target: T3, Protein kinase C epsilon type (Homo sapiens) (UniProt Q02156)
T3 sequence (whole entry): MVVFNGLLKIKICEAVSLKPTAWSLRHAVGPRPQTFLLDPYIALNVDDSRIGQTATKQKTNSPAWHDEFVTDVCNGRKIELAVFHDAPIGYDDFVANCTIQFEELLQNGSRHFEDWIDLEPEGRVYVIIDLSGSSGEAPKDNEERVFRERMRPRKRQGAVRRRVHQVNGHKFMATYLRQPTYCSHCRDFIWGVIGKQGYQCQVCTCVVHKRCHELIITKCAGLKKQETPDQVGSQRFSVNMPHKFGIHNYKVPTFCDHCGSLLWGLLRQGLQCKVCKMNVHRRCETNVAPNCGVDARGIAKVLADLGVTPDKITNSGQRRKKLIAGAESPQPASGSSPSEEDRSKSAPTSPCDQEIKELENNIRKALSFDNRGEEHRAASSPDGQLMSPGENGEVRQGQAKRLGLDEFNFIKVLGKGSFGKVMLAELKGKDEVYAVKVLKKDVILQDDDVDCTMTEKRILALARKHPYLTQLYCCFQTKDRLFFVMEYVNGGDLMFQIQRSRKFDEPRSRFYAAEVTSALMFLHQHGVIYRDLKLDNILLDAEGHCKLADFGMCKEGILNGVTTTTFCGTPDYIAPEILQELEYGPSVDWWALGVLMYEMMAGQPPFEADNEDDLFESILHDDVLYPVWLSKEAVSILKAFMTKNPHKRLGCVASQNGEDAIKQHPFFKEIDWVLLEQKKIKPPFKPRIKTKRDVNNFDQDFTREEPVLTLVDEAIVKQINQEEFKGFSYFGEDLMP

[9] = molecular target: Serine/threonine-protein kinase PAK 4 (Homo sapiens) (UniProt O96013)
Sequence of Serine/threonine-protein kinase PAK 4 (Homo sapiens) (O96013 whole entry, looked up): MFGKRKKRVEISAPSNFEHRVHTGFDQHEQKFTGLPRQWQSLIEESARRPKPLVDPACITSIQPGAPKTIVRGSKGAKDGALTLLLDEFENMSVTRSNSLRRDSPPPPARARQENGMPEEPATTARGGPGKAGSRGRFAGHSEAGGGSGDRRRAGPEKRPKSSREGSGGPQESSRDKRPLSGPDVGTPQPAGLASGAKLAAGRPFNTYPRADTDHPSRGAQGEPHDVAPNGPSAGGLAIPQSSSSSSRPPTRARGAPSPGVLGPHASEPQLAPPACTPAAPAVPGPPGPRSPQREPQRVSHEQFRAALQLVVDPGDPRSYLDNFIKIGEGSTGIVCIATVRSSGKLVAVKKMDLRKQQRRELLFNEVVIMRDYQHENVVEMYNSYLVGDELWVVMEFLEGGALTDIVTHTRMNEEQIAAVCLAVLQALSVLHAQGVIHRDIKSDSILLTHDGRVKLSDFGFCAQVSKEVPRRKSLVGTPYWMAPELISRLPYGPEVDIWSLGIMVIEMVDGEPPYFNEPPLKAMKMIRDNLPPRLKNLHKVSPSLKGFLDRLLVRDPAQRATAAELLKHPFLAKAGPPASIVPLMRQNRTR

[10] = molecular target: D(1A) dopamine receptor (Homo sapiens) (UniProt P21728)
Sequence of D(1A) dopamine receptor (Homo sapiens) (P21728 whole entry): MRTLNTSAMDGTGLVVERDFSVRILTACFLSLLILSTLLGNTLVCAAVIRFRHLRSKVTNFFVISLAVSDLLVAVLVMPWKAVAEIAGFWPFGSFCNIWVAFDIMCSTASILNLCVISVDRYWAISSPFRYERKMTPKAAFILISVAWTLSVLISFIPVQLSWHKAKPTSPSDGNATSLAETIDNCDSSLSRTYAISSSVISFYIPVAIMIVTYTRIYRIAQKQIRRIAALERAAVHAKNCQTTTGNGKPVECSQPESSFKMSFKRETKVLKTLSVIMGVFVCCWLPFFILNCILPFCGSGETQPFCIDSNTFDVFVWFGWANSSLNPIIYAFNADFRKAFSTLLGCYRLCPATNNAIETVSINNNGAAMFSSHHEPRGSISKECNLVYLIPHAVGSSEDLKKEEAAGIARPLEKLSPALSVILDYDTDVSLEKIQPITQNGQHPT

[11] = molecular target: Receptor-type tyrosine-protein kinase FLT3 (Homo sapiens) (UniProt P36888)
[12] = molecular target: Rho-associated protein kinase 1 (Homo sapiens) (UniProt Q13464)
Sequence of Rho-associated protein kinase 1 (Homo sapiens) (Q13464 2-1354 limits assumed): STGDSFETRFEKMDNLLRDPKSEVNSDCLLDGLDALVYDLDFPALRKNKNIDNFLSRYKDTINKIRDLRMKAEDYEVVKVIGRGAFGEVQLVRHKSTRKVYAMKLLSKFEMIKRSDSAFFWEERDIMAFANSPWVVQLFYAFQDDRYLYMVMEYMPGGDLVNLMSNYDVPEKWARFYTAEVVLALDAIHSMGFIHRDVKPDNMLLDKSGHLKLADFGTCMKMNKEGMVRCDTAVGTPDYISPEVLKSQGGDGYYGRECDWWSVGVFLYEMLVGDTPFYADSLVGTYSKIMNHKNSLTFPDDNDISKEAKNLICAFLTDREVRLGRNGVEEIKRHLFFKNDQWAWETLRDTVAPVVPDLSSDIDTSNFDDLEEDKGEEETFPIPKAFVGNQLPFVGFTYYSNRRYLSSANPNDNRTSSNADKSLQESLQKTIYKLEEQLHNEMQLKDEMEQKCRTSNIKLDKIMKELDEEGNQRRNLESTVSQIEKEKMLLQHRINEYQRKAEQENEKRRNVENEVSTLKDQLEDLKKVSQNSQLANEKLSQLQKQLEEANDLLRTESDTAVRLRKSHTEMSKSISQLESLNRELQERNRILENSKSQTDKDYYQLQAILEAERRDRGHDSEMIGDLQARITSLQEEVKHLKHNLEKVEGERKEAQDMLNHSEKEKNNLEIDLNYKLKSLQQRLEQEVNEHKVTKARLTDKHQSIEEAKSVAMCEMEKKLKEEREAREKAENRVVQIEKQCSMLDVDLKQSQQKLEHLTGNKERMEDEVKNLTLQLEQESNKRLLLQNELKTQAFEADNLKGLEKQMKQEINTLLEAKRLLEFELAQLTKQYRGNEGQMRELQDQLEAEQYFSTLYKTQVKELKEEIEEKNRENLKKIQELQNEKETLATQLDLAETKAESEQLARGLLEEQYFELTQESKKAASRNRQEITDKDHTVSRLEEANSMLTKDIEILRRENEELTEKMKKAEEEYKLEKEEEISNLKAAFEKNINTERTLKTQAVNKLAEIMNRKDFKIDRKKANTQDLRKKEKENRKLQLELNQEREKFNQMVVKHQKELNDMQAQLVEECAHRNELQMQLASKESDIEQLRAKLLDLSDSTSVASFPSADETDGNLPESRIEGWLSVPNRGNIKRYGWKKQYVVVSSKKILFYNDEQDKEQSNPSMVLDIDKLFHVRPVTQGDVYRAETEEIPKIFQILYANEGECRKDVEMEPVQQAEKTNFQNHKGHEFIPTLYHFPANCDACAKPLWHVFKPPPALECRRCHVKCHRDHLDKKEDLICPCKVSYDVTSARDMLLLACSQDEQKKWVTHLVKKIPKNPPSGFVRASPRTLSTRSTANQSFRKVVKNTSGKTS

[13] = molecular target: Ribosomal protein S6 kinase beta-1 (Homo sapiens) (UniProt P23443)
[14] = molecular target: Muscarinic acetylcholine receptor M2 (Homo sapiens) (UniProt P08172)
[15] = molecular target: D(4) dopamine receptor (Homo sapiens) (UniProt P21917)

Sequence of Insulin receptor (Homo sapiens) (P06213 28-758 limits assumed): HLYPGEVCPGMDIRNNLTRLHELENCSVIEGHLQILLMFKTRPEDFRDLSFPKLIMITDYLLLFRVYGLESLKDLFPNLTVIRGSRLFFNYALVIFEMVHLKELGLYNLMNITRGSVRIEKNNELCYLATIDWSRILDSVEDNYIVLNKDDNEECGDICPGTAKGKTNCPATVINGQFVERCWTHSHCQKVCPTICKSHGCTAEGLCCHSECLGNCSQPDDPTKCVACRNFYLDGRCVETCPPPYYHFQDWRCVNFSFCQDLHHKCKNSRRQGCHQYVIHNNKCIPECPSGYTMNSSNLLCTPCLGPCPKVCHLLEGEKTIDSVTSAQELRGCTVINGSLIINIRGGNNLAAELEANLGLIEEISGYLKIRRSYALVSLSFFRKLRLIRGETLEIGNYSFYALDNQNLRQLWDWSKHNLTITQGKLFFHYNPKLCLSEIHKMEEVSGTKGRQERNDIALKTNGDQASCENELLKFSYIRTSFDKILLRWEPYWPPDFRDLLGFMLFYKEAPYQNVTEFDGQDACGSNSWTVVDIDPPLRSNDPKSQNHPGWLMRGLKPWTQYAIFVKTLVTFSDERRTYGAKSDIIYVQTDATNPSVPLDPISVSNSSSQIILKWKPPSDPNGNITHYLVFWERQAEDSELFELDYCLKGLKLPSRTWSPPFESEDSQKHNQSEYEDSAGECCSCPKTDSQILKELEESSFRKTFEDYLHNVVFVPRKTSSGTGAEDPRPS
Sequence of Insulin receptor (Homo sapiens) (P06213 763-1382 limits assumed): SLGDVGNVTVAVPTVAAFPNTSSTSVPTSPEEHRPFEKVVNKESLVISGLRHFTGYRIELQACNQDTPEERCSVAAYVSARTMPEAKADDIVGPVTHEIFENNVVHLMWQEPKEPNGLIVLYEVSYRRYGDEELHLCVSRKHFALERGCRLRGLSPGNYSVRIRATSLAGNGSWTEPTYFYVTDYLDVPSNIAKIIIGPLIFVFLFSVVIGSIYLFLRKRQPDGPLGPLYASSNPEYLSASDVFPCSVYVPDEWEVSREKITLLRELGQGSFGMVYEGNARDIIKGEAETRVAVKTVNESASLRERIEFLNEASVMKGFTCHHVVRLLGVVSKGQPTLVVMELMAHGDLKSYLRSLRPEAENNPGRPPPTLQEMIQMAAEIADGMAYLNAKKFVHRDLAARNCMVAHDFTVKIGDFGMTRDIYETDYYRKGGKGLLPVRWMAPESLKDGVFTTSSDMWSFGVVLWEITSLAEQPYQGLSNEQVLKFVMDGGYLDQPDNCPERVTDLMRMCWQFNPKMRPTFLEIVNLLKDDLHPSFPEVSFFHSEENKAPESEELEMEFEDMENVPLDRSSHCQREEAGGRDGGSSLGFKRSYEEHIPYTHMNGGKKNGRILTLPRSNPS
Sequence of Mitogen-activated protein kinase 1 (Homo sapiens) (P28482 whole entry): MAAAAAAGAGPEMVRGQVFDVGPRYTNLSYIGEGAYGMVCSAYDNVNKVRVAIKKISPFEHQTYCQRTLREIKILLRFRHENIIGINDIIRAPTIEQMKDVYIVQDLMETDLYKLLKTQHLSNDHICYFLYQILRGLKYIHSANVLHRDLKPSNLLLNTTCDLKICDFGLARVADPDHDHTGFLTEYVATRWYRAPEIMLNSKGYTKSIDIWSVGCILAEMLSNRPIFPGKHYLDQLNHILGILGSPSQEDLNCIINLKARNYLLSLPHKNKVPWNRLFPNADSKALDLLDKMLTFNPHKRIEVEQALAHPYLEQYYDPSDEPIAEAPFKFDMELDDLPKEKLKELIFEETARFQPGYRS

| Compound | residual activity [1] [%] | residual activity [2] [%] | residual activity [3] [%] | residual activity [4] [%] | residual activity [5] [%] | residual activity [6] [%] | residual activity [7] [%] | residual activity [8] [%] | residual activity [9] [%] | inhibition [10] [%] | residual activity [11] [%] | residual activity [12] [%] | residual activity [13] [%] | inhibition [14] [%] | inhibition [15] [%] |
| --- | --- | --- | --- | --- | --- | --- | --- | --- | --- | --- | --- | --- | --- | --- | --- |
| CCOC(=O)c1cc2cc(-c3cc(C(=O)NCc4ccc(C(=O)O)cc4)nn3C)ccc2[nH]1 [BI 4394] | 84 | 98 | 56 | 44 | -1 | 107 | 28 | 115 | 75 | -5.02 | 64 | 97 | 89 | – | – |
| Cn1nc(C(=O)NCc2ccc(C(=O)O)cc2)cc1-c1ccc2[nH]ccc2c1 [BI 4395] | – | – | – | – | – | – | – | – | – | – | – | – | – | -8.35 | -8.91 |
